According to patent publication US20140024716A1, “Composition Comprising S-Allyl-L-Cysteine as Active Ingredient for Preventing or Treating Gastrointestinal Disorders” (PHARMAKING CO., LTD., priority 2009, published 2014):
Several values for one entry are separate records, joined by “and”; a condition that tells them apart may be missing. Equal entries are not always repeated. Entries after “also recorded” stand apart in the source; their conditions may differ.

Experiments:
Helicobacter pylori = assay: Serologic parameters (GOT, GPT) in Helicobacter pylori-infected mouse model; type: in vivo, C57BL/6 mice; details: SAC1 and SAC2 groups
Protocol: 8-week old male C57BL/6 mice were classified into 4 groups, i.e., a positive control group (to which Helicobacter pylori was administered; PC), a negative control group (to which saline was administered; NC), experimental group 1 (to which Helicobacter pylori and 200 mg/kg of SAC were administered; SAC1), and experimental group 2 (to which Helicobacter pylori and 400 mg/kg of SAC were administered; SAC2). Each group had 10 mice. White powdered SAC was diluted in tap water to concentrations of 20 mg/mL and 40 mg/mL and 10 μl/g (body weight) of the diluted SAC was orally administered to the mice of the SAC1 and SAC2 groups three times a week for 10 weeks. The mice were given free access to tap water for the entire test period. The Helicobacter pylori was collected with saline to a concentration of 1×10^9 CFU/mL, and 0.2 mL of the diluted Helicobacter pylori was orally administered to each mouse for 8 weeks from 2 weeks after SAC administration. The mice were fasted for 8 hours before the infection, and 0.15 mL of 0.2 M sodium bicarbonate (NaHCO3) was administered to each mouse 10 minutes before the administration of Helicobacter pylori in order to neutralize acidified stomach due to the fasting. The same amount of saline instead of the infectious substances was administered into the NC group. The mice of all groups were fed with a normal diet. […]

Cu/Zn-SOD = assay: Serum Cu/Zn-SOD level in Helicobacter pylori infection model; type: in vivo, C57BL/6 mice; details: for Cu/Zn-SOD level greater than that of the PC group by: serum
Protocol: 8-week old male C57BL/6 mice were classified into 4 groups, i.e., a positive control group (to which Helicobacter pylori was administered; PC), a negative control group (to which saline was administered; NC), experimental group 1 (to which Helicobacter pylori and 200 mg/kg of SAC were administered; SAC1), and experimental group 2 (to which Helicobacter pylori and 400 mg/kg of SAC were administered; SAC2). Each group had 10 mice. White powdered SAC was diluted in tap water to concentrations of 20 mg/mL and 40 mg/mL and 10 μl/g (body weight) of the diluted SAC was orally administered to the mice of the SAC1 and SAC2 groups three times a week for 10 weeks. The mice were given free access to tap water for the entire test period. The Helicobacter pylori was collected with saline to a concentration of 1×10^9 CFU/mL, and 0.2 mL of the diluted Helicobacter pylori was orally administered to each mouse for 8 weeks from 2 weeks after SAC administration. The mice were fasted for 8 hours before the infection, and 0.15 mL of 0.2 M sodium bicarbonate (NaHCO3) was administered to each mouse 10 minutes before the administration of Helicobacter pylori in order to neutralize acidified stomach due to the fasting. The same amount of saline instead of the infectious substances was administered into the NC group. The mice of all groups were fed with a normal diet. After a 10-week test period, autopsies were performed on all mice, and samples of blood and internal organs were collected for tissue pathological analyses. The test was performed according to the process of FIG. 19.
In this regard, a superoxide dismutase activity assay kit (BioVision, Mountain View, Calif., USA) was used. 20 μl of serum and 200 μl of a WST working solution as a substrate were mixed. 20 μl of an enzyme working solution was added thereto, and the mixture was maintained at 37° C. for 20 minutes. Absorbance was measured at 450 nm. A control reaction was conducted in the same manner as described above, except that 20 μl of distilled water was added thereto instead of serum. SOD activity (inhibition rate %) was calculated.

[1] = test system: gastric lesions of rats induced by aspirin; assay: Aspirin-induced gastric lesion animal model; type: in vivo, Sprague-Dawley rats; details: for Ulcer Area (mm^2), group mean: n = 6
Text: (§1) SAC was purchased from TCI Chemical Co. (Tokyo, Japan). Sterile water for injection (Model No. 73H5F21, Dae Han Pharmaceutical Co. Ltd.) was used as a vehicle, and Stillen® was used as a positive control material. 0.5% CMC-Na and sterile water for injection were used as excipients for Stillen®. Hydrochloric acid was purchased from Samjung Chemical, Co., ethanol was purchased from Baker, Co., aspirin was purchased from Sigma, Co., and indomethacin was purchased from Sigma, Co.
(§2) 7 to 8-week old male specific pathogen free (SPF) HsdKoat:Sprague-Dawley®™ SD®™rats (weight of 7-week old males was in the range of 208.44 to 227.39 g, and weight of 8-week old maleswas in the range of 223.85 to 245.03 g, purchased from Koatech, Co. Ltd., Gyunggido, Korea) were quarantined and acclimated in the Animal Lab for 7 days. The rats were bred at a temperature of 23 3° C., at a relative humidity of 55 15%, with light for 12 hours (light turned on at 08:00 and light turned off at 20:00) while air was ventilated 10 to 20 times/hr in the Animal Experiment Lab of Gyeonggi Bio-Center. Other environments for breeding which might influence the test for the entire test period were not considered for use. The rats were given free access to a solid laboratory diet (Harlan Co. Ltd., USA. Teklad certified global 18% protein rodent diet, 2918C) that was supplied by Folas International. […] The rats were given free access to tap water that was sterilized using a UV sterilizer and a micro filter with water bottles.
(§3) The rats were classified into a vehicle control group G1 to which only a vehicle was administered, a experimental group G2 to which 100 mg/kg of SAC was administered, a experimental group G3 to which 200 mg/kg of SAC was administered, a experimental group G4 to which 400 mg/kg of SAC was administered, and a positive control group G5 to which 100 mg/kg of Stillen® (55.6 mg/kg as an active ingredient) as a positive control material were administered. Each group included 8 rats in a hydrochloric acid-ethanol-induced animal model (Experiment Example 7) and included 6 rats in an aspirin-induced animal model (Experimental Example 8) and in an indomethacin-induced animal model (Experimental Example 9).
(§4) The test substance was directly administered to the stomach using an injection tube equipped with a sonde for oral administration in a single dose once per day.
The rats were fasted for more than 24 hours in a normal environment, the test substance was administered, and 200 mg/kg of aspirin in 0.15 mol/L HCl was orally administered after 30 minutes. After three hours from the aspirin administration, the rats were sacrificed under ether anesthesia and their stomachs including parts of the duodenum and esophagus were isolated. The stomachs were was fixed for 10 minutes by injecting 12 ml of 2% formalin. The greater curvature of each stomach was incised and unfolded, photographs of the gastric grandular region were taken, and then the areas of the lesions were measured using an image analyzer.
Gastric lesion inhibiting rate (%)=(average area of the vehicle control group-area of gastric lesion of each animal)/average area of the vehicle control group×100.

[2] = test system: gastric lesions of rats induced by indomethacin; assay: Indomethacin-induced gastric lesion animal model; type: in vivo, Sprague-Dawley rats
Text: as §1, §2, §3, §4
The rats were fasted for more than 24 hours in a normal environment, SAC was administered, and 25 mg/kg of indomethacin in distilled water was orally administered after 30 minutes. After six hours from the indomethacin administration, the rats were sacrificed under ether anesthesia and their stomachs including parts of the duodenum and esophagus were isolated. The stomachs were fixed for 10 minutes by injecting 12 ml of 2% formalin, the greater curvature of each stomach was incised and unfolded, photographs of the lesions were taken, and then the areas of the lesions were measured using an image analyzer.
The gastric lesion inhibiting rate (%) was calculated in the same manner as in Experimental Example 8.

[3] = General observation (death, weight) of rats in gastric lesion tests; type: in vivo, Sprague-Dawley rats
Protocol: as §2, with “bottles. […]” for “bottles.”

With C=CCSC[C@H](N)C(=O)O [SAC, S-allyl-L-cysteine] the “serum GPT level versus PC group” value (Helicobacter pylori; not significantly different) was “less than that of the PC group; also recorded: less than the positive control group”, the “serum GOT level versus PC group” value (Helicobacter pylori; not significantly different (p<0.08)) was “less than that of the PC group; also recorded: less than the positive control group” and the “Cu/Zn-SOD level greater than that of the PC group by” value (Cu/Zn-SOD; SAC1 group (200 mg/kg SAC)) was “about 4%”. For the same molecule, the “Cu/Zn-SOD level greater than that of the PC group by” value (Cu/Zn-SOD; SAC2 group (400 mg/kg SAC)) was “about 3%”, the “serum Cu/Zn-SOD level versus positive control group” value (Cu/Zn-SOD; SAC-administered experimental group, dose not stated) was “higher than that of the positive control group” and the “Ulcer area of individual animal (Animal number 1-6)” value (“Ulcer area of individual animal” for short) ([1]; G2: 100 mg/kg SAC) was 91.68 and 44.12 and 40.95 and 63.52 (2×) and 64.67. For the same molecule, the “Ulcer Area (mm^2), group mean” value ([1]; G2: 100 mg/kg SAC oral, 30 min before 200 mg/kg aspirin) was 68.6±25.94 mm^2 and 68.6 mm^2, the “Ulcer area of individual animal” value ([1]; G3: 200 mg/kg SAC) was 46.29 and 19.37 and 5.41 and 27.07 (2×) and 43.86 and the “Ulcer Area (mm^2), group mean” value ([1]; G3: 200 mg/kg SAC) was 31.4±16.99 mm^2 and 31.4 mm^2. The “Ulcer area of individual animal” value ([1]; G4: 400 mg/kg SAC) was 63.26 and 9.34 and 70.28 and 40.03 (2×) and 11.58, the “Ulcer Area (mm^2), group mean” value ([1]; G4: 400 mg/kg SAC) was 32.5±29.78 mm^2 and 32.5 mm^2 and the “gastric lesion inhibiting rate (%) up to” value ([1]; highest rate over SAC doses) was “about 85%”. For the same molecule, the “gross finding of stomach” value ([2]; 200 mg/kg and 400 mg/kg SAC) was “light gastric lesions and no bleedings”, the “Ulcer area of individual animal” value ([2]; G2: 100 mg/kg SAC) was 1.3 and 1.6 and 1.5 and 9.4 and 2.3 and the “Ulcer Area (mm^2), group mean” value ([2]; G2: 100 mg/kg SAC oral, 30 min before 25 mg/kg indomethacin) was 3.2±3.47 mm^2 and 3.2 mm^2. For the same molecule, the “Ulcer area of individual animal” value ([2]; G3: 200 mg/kg SAC) was 0.0 and 0.3 and 0.9 and 0.6 and 0.7 and 0.4, the “Ulcer Area (mm^2), group mean” value ([2]; G3: 200 mg/kg SAC, n = 6) was 0.5±0.30 mm^2 and 0.5 mm^2 and the “Ulcer area of individual animal” value ([2]; G4: 400 mg/kg SAC) was 0.8 and 0.4 and 0.1 (2×) and 0.2 and 1.0. The “Ulcer Area (mm^2), group mean” value ([2]; G4: 400 mg/kg SAC, n = 6) was 0.4±0.36 mm^2 and 0.4 mm^2, the “gastric lesion inhibiting rate (%) up to” value ([2]; highest rate over SAC doses) was “about 94%” and the “death and other changes” value ([3]; 100, 200, 400 mg/kg SAC oral single dose, rats) was “No animals died and no other changes were observed”. The “significant weight change with respect to administration” value ([3]; 100, 200, 400 mg/kg SAC oral, entire test period) was “not observed”.
